{
  "source": "patent US6288040A",
  "about": "“Medicament excipient particles for tissue-specific application of a medicament” (DSS Drug Delivery Service Gesellschaft zur Forderung der …, priority 1997, dated 2001)",
  "origin": "cited, not measured here",
  "system": "mice",
  "conditions": "free dalargin, high dosage 20 mg/kg",
  "note": "Non-standard residues stand in square brackets, D forms with d. No end group written: not given here.",
  "data": [
    {"substance": "Tyr-D-Ala-Gly-Phe-Leu-Arg (Y[dA]GFLR) [dalargin, hexapeptide, leu-enkephalin-analogon, opioid receptor agonist]", "values": [
      {"measurement": "analgesic effect after i.v. administration of dalargin", "result": "does not lead to an analgesic effect"}
    ]}
  ]
}
